From patent publication US11980598B2, “N-(2-(substituted-naphth-1-yl)ethyl) substituted amide compound, preparation and uses thereof” (BEIJING GREATWAY PHARMACEUTICAL TECHNOLOGY CO., LTD., priority 2017, dated 2024)

Tests used:
Assay type in all cases: in vivo
SD rats [1] = test: Anxiety behavior model of repeatedly administrated rat: novelty-suppressed feeding test; conditions: D12
Method: The requirements for test animals, drug formulation and administration were the same as those of the rat chronic mild stress model.
Instruments: Vogel drinking anxiety device for rat and O-maze device for rat were manufactured by Shanghai XinRuan Company. The rat feeding chamber was a home-made white plastic box (60×45×25 cm).
The rats were administrated continuously by i.g. once a day. A novelty-suppressed feeding test, a Vogel drinking conflict test, and an O-maze test were performed on a different day, respectively. Each behavior test was performed at 9:00-12:00, and the administration time was 16:00-17:00. The test process was as follows: D12, novelty-suppressed feeding test (animals were fasted for 48 hours before the test); D18, Vogel drinking conflict test (animals were banned from water for 48 hours before the test); D21, O-maze test.
Common paddings with a thickness of 1.5 cm were placed at the floor of the rat feeding chamber, and six equal-sized food pellets were placed in the center. During the test, the rats were individually placed in a fixed position of the feeding chamber, and observed for 5 minutes. The time from rat entry to the start of biting or chewing the food was recorded with a stopwatch.

SD rats [2] = test: Forced rat swimming test; conditions: 10 mg/kg i.g., 3 days, last 5 of 6 min
Method: Animals: Kunming mice, male, body weight 18-22 g, SPF grade; SD rats, male, body weight 150-180 g, SPF grade. The test was carried out after acclimatization, and the animal was fasted for 12 hours before the test.
All drugs for the test were suspended and dispersed in a 1% aqueous solution of hydroxypropyl methylcellulose (HPMC), and shaken well before use. […] The doses for administration were all 10 mg/kg. For the concentration and volume for administration, see J Psychiatry Neurosci 2004; 29(2):126-133. The mice were intraperitoneally administered in a volume of 0.5 mL/20 g; and the rats were administered by i.g. in a volume of 2 mL/100 g.
Rats were randomly divided into groups according to weight balance. Rats were administered by i.g. for three consecutive days, once a day. One hour after administration on the third day, the forced swimming test was performed. The rats were placed in a round glass jar with a height of 40 cm, an inner diameter of 18 cm, a water depth of 23 cm, and a water temperature of 25° C. The rats were allowed to swim for 6 minutes, and the accumulated immobility time in the last 5 minutes was recorded.

chronic stress rat [3] = test: Chronic unpredictable stress model of rat: open-field activity test; conditions: stress rats, day 28, 5 min
Method: (§1) Animals: SD rats, male, weighing 150-180 g, SPF grade.
(§2) Formulation and administration mode of drugs: All drugs for the test were suspended and dispersed with a 0.5% aqueous solution of CMC-Na, and shaken well before use. The rats were administered by i.g. at a volume of 10 mL/kg.
(§3) Rats were acclimatized for 3 days after purchase. First, 48 h of sucrose training was performed. After the training, a sucrose baseline test was performed. The rats were randomly and evenly grouped according to sucrose preference. Then, (dl) a 4-week chronic unpredictable stress (CUS) procedure was performed with the following stress methods: (1) food deprivation (fasting); (2) water deprivation; (3) stroboflash; (4) overnight illumination; (5) wet feeding (200 ml of water was added to 150 g of sawdust bedding); (6) noise stimulation (110 dB), 1 h; (7) swimming in cold water (the water temperature was 10° C.); (8) cage tilt (45 degrees of inclination); (9) tail pinch (at 1 cm away from the tail root) for 6 min; (10) restraint for 1-2 h. One of the above stress methods was used randomly every day, but water deprivation and fasting were separated. The corresponding drugs (including the blank control group and the positive drug group) were given 1 h before the stress in the morning every day. Behavior test was performed after the end of the chronic stress. d25, sucrose preference; d28, open-field; d31, novelty-suppressed feeding test.
On the 28th day of the stress program, the rats were placed in the middle compartment of an open chamber, and a 60 W light bulb was placed 45 cm directly above them. The activities of the rats were observed within 5 minutes, including the number of times crossing a compartment horizontally (the number of times crossing into an adjacent compartment with three or more claws), and the number of times rearing (the number of times the forelimbs are more than 1 cm off the ground). Note: the test environment of the test should be kept as quiet as possible; the rats should be placed in the same position and direction each time; and the animal's excretion should be removed after each test.

chronic stress rat [4] = test: Chronic unpredictable stress model of rat: novelty-suppressed feeding test; conditions: stress rats, day 31
Method: as §1, §2, §3
On the 29th day of the stress program, the rats were fasted for 48 hours (not water deprivation) and then subjected to a novelty-suppressed feeding test (d31). The rats were placed in a novelty-suppressed feeding chamber with an open top. The bottom of the chamber was covered with a 2 cm thick sawdust. In the center of the chamber were placed 12 food balls of the same size. At the same time as the rats were put in, the latency of the rats to start eating within 5 min was calculated. The criterion for eating was that the animal started chewing food instead of just sniffing or toying with food. Rats that had not eaten within 5 minutes were recorded to have a feeding latency of 5 minutes. The test environment of the test should be kept as quiet as possible; the rats should be placed in the same position and direction each time; the environment of the test was preferably different from the breeding environment, and the light intensity of the test environment was greater than that of the breeding environment.

chronic stress rat [5] = test: Chronic unpredictable stress model of rat: sucrose preference test; conditions: for Sucrose preference (%) Before modeling: baseline before modeling; for Sucrose preference (%) After 4 weeks of administration: stress rats
Method: as §1, §2, §3
Rats were acclimatized for 3 days after purchase. The rats were trained to give sucrose aqueous solution for 48 h without food and water supply, only 1% aqueous solution of sucrose was given for the first 24 h, and 1% aqueous solution of sucrose and tap water were simultaneously given for the next 24 h. After the end of the training, the rats were fed with normal food and water for 3 days, and then a sucrose preference baseline was determined: after fasting and water deprivation for 14 h, rats were allowed to drink freely two different bottles of water, one of which was 1% aqueous solution of sucrose and the other was tap water. The intakes (g) of rats from these two bottles within 1 hour were measured to calculate the sucrose preference. Sucrose preference (%)=intake of aqueous solution of sucrose/(intake of aqueous solution of sucrose+intake of tap water)×100%. On the 25th day of the stress program, the same method was used to perform the sucrose preference test again to calculate the sucrose preference.

| SMILES | Feeding latency (SD rats [1]; 10 mg/kg i.g. once a day) | Feeding latency (SD rats [1]; 20 mg/kg i.g. once a day) | Feeding latency (SD rats [1]; 40 mg/kg i.g. once a day) | Immobility time (SD rats [2]) | Number of times crossing a compartment horizontally (chronic stress rat [3]; 10 mg/kg i.g. daily) | Number of times rearing (chronic stress rat [3]; 10 mg/kg i.g. daily) | Number of times crossing a compartment horizontally (chronic stress rat [3]; 20 mg/kg i.g. daily) | Number of times rearing (chronic stress rat [3]; 20 mg/kg i.g. daily) | Number of times crossing a compartment horizontally (chronic stress rat [3]; 40 mg/kg i.g. daily) | Number of times rearing (chronic stress rat [3]; 40 mg/kg i.g. daily) | Feeding latency (chronic stress rat [4]; 10 mg/kg i.g. daily) | Feeding latency (chronic stress rat [4]; 20 mg/kg i.g. daily) | Feeding latency (chronic stress rat [4]; 40 mg/kg i.g. daily) | Sucrose preference (%) Before modeling (chronic stress rat [5]; group later dosed 20 mg/kg) | Sucrose preference (%) After 4 weeks of administration (chronic stress rat [5]; 10 mg/kg i.g. daily) | Sucrose preference (%) After 4 weeks of administration (chronic stress rat [5]; 20 mg/kg i.g. daily) | Sucrose preference (%) After 4 weeks of administration (chronic stress rat [5]; 40 mg/kg i.g. daily) | other results |
| --- | --- | --- | --- | --- | --- | --- | --- | --- | --- | --- | --- | --- | --- | --- | --- | --- | --- | --- |
| [2H]C([2H])([2H])Oc1cc2c(CCNC(C)=O)cccc2cc1Cl [Example 1, N-(2-(6-chloro-7-deuteromethoxy-naphthalen-1-yl)ethyl)acetamide] | 141 ± 17 s | 124 ± 18 s | 120 ± 14 s | 51.0 ± 32.4 s | 36.4 ± 4.2 | 14.6 ± 1.7 | 36.5 ± 2.9 | 15.9 ± 1.1 | 34.9 ± 3.0 | 17 ± 1.5 | 145 ± 23 s | 115 ± 16 s | 117 ± 14 s | 60.1 ± 4.4% | 78.4 ± 4.4 % | 78.8 ± 6.1 % | 83.3 ± 1.9 % | Feeding latency (SD rats [1]; 5 mg/kg i.g. once a day): 232 ± 23 s; Number of times crossing a compartment horizontally (chronic stress rat [3]; 5 mg/kg i.g. daily): 36.8 ± 4.4; Number of times rearing (chronic stress rat [3]; 5 mg/kg i.g. daily): 15.1 ± 1.3; Feeding latency (chronic stress rat [4]; 5 mg/kg i.g. daily): 188 ± 21 s; Sucrose preference (%) Before modeling (chronic stress rat [5]; group later dosed 5 mg/kg): 55.5 ± 7.8%; Sucrose preference (%) After 4 weeks of administration (chronic stress rat [5]; 5 mg/kg i.g. daily): 80.4 ± 3.1 % |
| COc1ccc2cccc(CCNC(C)=O)c2c1 [Agomelatine, reference compound] | 208 ± 26 s | 163 ± 25 s | 124 ± 25 s | 73.5 ± 38.5 s | 33.4 ± 4.2 | 18.1 ± 1.1 | 33.9 ± 2.4 | 16.7 ± 1.8 | 38.9 ± 3.6 | 17.3 ± 1.1 | 248 ± 21 ^ s | 164 ± 26 s | 130 ± 17 s | 65.6 ± 10.1% | 84.3 ± 3.6 % | 66.6 ± 6.7% | 76.1 ± 5.3 % |  |
